# ChEMBL document CHEMBL1955725, “Structure-guided lead optimization of triazolopyrimidine-ring substituents identifies potent Plasmodium falciparum dihydroorotate dehydrogenase inhibitors with clinical candidate potential” (J Med Chem, 2011)
# Assays:
# [1] = AUC (0 to infinity) in Swiss outbred mouse plasma at 10 mg/kg, po; format: ADME, organism-based; design: time infinity, dose 10 mg/kg, route oral
# in vivo [2] = conditions: Sprague-Dawley, rat, po, 2.1 mg/kg
# [3] = Terminal elimination half life in Sprague-Dawley rat at 18.8 mg/kg, po; format: ADME, organism-based; design: dose 18.8 mg/kg, route oral; conditions: in vivo, read-out: beta t1/2 (converted)
# [4] = Cmax in Sprague-Dawley rat at 18.8 mg/kg, po; format: ADME, organism-based; design: dose 18.8 mg/kg, route oral; conditions: in vivo
# Plasma = test: Plasma protein binding in human by chromatographic method; format: ADME, cell-free
# [5] = Cmax in Swiss outbred mouse at 50 mg/kg, po; format: ADME, organism-based; design: dose 50 mg/kg, route oral; conditions: in vivo
# [6] = Oral bioavailability in Sprague-Dawley rat at 46.7 mg/kg; format: ADME, organism-based; conditions: in vivo
# Plasmodium falciparum [7] = test: Antimalarial activity against Plasmodium falciparum 3D7 by [3H]hypoxanthine incorporation assay in presence of human serum; format: functional, organism-based
# Plasmodium falciparum [8] = test: Antimalarial activity against […] Plasmodium falciparum TM90C2A by [3H]hypoxanthine incorporation assay in presence of human serum; format: functional, organism-based
# Plasmodium falciparum [9] = test: Antimalarial activity against atovoquone-resistant Plasmodium falciparum TM90C2B by [3H]hypoxanthine incorporation assay in presence of human serum; format: functional, organism-based
# in vivo [10] = conditions: NOD-SCID IL-2Rgamma-null, mouse, po, 7 mg/kg
# [11] = Cmax in Swiss outbred mouse at 10 mg/kg, po; format: ADME, organism-based; design: dose 10 mg/kg, route oral; conditions: in vivo
# Liver microsomes = test: Intrinsic clearance in human liver microsomes; format: ADME, Microsome
# in vivo [12] = conditions: Swiss outbred, mouse, po, 10 mg/kg
# Plasmodium falciparum [13] = test: Antimalarial activity against Plasmodium falciparum D10 by [3H]hypoxanthine incorporation assay; format: functional, organism-based
# [14] = Terminal elimination half life in Swiss outbred mouse at 50 mg/kg, po; format: ADME, organism-based; design: dose 50 mg/kg, route oral; conditions: in vivo, read-out: beta t1/2 (converted)
# Plasmodium falciparum [15] = test: Antimalarial activity against drug-sensitive Plasmodium falciparum D6 by [3H]hypoxanthine incorporation assay in presence of human serum; format: functional, organism-based
# L1210 = test: Cytotoxicity against mouse L1210 cells; format: cell-based
# [16] = Aqueous solubility of the compound at pH 6.5; format: physicochemical
# [17] = Clearance in Sprague-Dawley rat at 2.6 mg/kg, iv; format: ADME, organism-based; design: dose 2.6 mg/kg, route intravenous; conditions: in vivo
# in vivo [18] = conditions: Sprague-Dawley, rat, po, 18.8 mg/kg
# in vivo [19] = conditions: Swiss outbred, mouse, po, 0.4 mg/kg
# [20] = AUC (0 to infinity) in Sprague-Dawley rat at 18.8 mg/kg, po; format: ADME, organism-based; design: time infinity, dose 18.8 mg/kg, route oral; conditions: plasma
# [21] = Oral bioavailability in Sprague-Dawley rat at 18.8 mg/kg; format: ADME, organism-based; conditions: in vivo
# [22] = Terminal elimination half life in Sprague-Dawley rat at 2.6 mg/kg, iv; format: ADME, organism-based; design: dose 2.6 mg/kg, route intravenous; conditions: in vivo, read-out: beta t1/2 (converted)
# [23] = AUC (0 to infinity) in Swiss outbred mouse plasma at 2 mg/kg, po; format: ADME, organism-based; design: time infinity, dose 2 mg/kg, route oral
# Plasmodium falciparum [24] = test: Antimalarial activity against Plasmodium falciparum 3D7 by [3H]hypoxanthine incorporation assay in presence of albumax; format: functional, organism-based
# [25] = Cmax in Sprague-Dawley rat at 46.7 mg/kg, po; format: ADME, organism-based; design: dose 46.7 mg/kg, route oral; conditions: in vivo
# [26] = Plasma protein binding in Swiss outbred mouse by ultracentrifugation; conditions: read-out: PPB (converted)
# [27] = Terminal elimination half life in Sprague-Dawley rat at 2.1 mg/kg, po; format: ADME, organism-based; design: dose 2.1 mg/kg, route oral; conditions: in vivo, read-out: beta t1/2 (converted)
# [28] = Terminal elimination half life in Sprague-Dawley rat at 46.7 mg/kg, po; format: ADME, organism-based; design: dose 46.7 mg/kg, route oral; conditions: in vivo, read-out: beta t1/2 (converted)
# [29] = Cmax in Sprague-Dawley rat at 2.1 mg/kg, po; format: ADME, organism-based; design: dose 2.1 mg/kg, route oral; conditions: in vivo
# Plasmodium falciparum [30] = test: Antimalarial activity against chloroquine-resistant Plasmodium falciparum Dd2 by [3H]hypoxanthine incorporation assay in presence of human serum; format: functional, organism-based
# Plasmodium falciparum [31] = test: Antimalarial activity against Plasmodium falciparum D10 transfected with yeast DHODH by [3H]hypoxanthine incorporation assay; format: functional, organism-based
# Plasmodium falciparum [32] = test: Antimalarial activity against drug-sensitive Plasmodium falciparum HB3 by [3H]hypoxanthine incorporation assay in presence of human serum; format: functional, organism-based
# in vivo [33] = conditions: Swiss outbred, mouse, po, 50 mg/kg
# Plasmodium falciparum [34] = test: Antimalarial activity against Plasmodium falciparum 3D7 0087/N9 infected in human RBC engrafted NOD-SCID IL-2Rgamma-null mouse assessed as reduction in parasitemia administered orally 3 days post infection qd for 4 days measured 24 hrs after final dose by FACS analysis; format: functional; conditions: 3D7 0087/N9, po
# [35] = AUC (0 to infinity) in Sprague-Dawley rat at 46.7 mg/kg, po; format: ADME, organism-based; design: time infinity, dose 46.7 mg/kg, route oral; conditions: plasma
# [36] = Terminal elimination half life in Swiss outbred mouse at 0.4 mg/kg, po; format: ADME, organism-based; design: dose 0.4 mg/kg, route oral; conditions: in vivo, read-out: beta t1/2 (converted)
# [37] = Plasma protein binding in Sprague-Dawley rat at 2.1 to 46.7 mg/kg, po; format: ADME, organism-based; design: dose 2.1-46.7 mg/kg, route oral; conditions: read-out: PPB (converted)
# [38] = AUC (0 to infinity) in Swiss outbred mouse plasma at 50 mg/kg, po; format: ADME, organism-based; design: time infinity, dose 50 mg/kg, route oral
# [39] = Terminal elimination half life in Sprague-Dawley rat at 0.9 mg/kg, iv; format: ADME, organism-based; design: dose 0.9 mg/kg, route intravenous; conditions: in vivo, read-out: beta t1/2 (converted)
# Plasmodium falciparum [40] = test: Antimalarial activity against chloroquine and pyrimethamine-resistant Plasmodium falciparum K1 by [3H]hypoxanthine incorporation assay in presence of human serum; format: functional, organism-based
# Mus musculus [41] = test: Time plasma concentration remained above 1 uM in Swiss outbred mouse plasma at 10 mg/kg, po; format: ADME, organism-based; design: dose 10 mg/kg, route oral; conditions: in vivo
# in vivo [42] = conditions: Sprague-Dawley, rat, po, 46.7 mg/kg
# [43] = Cmax in human RBC engrafted NOD-SCID IL-2Rgamma-null mouse at 7 mg/kg, po; format: ADME, organism-based; design: dose 7 mg/kg, route oral; conditions: in vivo
# Mus musculus [44] = test: Time plasma concentration remained above 1 uM in Swiss outbred mouse plasma at 0.4 mg/kg, po; format: ADME, organism-based; design: dose 0.4 mg/kg, route oral; conditions: in vivo
# [45] = Volume of distribution in Sprague-Dawley rat at 2.6 mg/kg, iv; format: ADME, organism-based; design: dose 2.6 mg/kg, route intravenous; conditions: in vivo
# in vivo [46] = conditions: Swiss outbred, mouse, po, 2 mg/kg
# [47] = Volume of distribution in Sprague-Dawley rat at 0.9 mg/kg, iv; format: ADME, organism-based; design: dose 0.9 mg/kg, route intravenous; conditions: in vivo
# Mus musculus [48] = test: Time plasma concentration remained above 1 uM in Swiss outbred mouse plasma at 2 mg/kg, po; format: ADME, organism-based; design: dose 2 mg/kg, route oral; conditions: in vivo
# [49] = Terminal elimination half life in Swiss outbred mouse at 2 mg/kg, po; format: ADME, organism-based; design: dose 2 mg/kg, route oral; conditions: in vivo, read-out: beta t1/2 (converted)
# [50] = Terminal elimination half life in Swiss outbred mouse at 10 mg/kg, po; format: ADME, organism-based; design: dose 10 mg/kg, route oral; conditions: in vivo, read-out: beta t1/2 (converted)
# [51] = Cmax in human RBC engrafted NOD-SCID IL-2Rgamma-null mouse infected with Plasmodium falciparum 3D7 0087/N9 at 7 mg/kg, po; format: ADME, organism-based; design: dose 7 mg/kg, route oral; conditions: in vivo
# HepG2 = test: Cytotoxicity against human HepG2 cells; format: cell-based
# [52] = Cmax in Swiss outbred mouse at 2 mg/kg, po; format: ADME, organism-based; design: dose 2 mg/kg, route oral; conditions: in vivo
# Mus musculus [53] = test: AUC (0 to 24 hrs) in human RBC engrafted NOD-SCID IL-2Rgamma-null mouse at 7 mg/kg, po; format: ADME, organism-based, Plasma; design: time < 24 hr, dose 7 mg/kg, route oral; conditions: in vivo
# [54] = Oral bioavailability in Sprague-Dawley rat at 2.1 mg/kg; format: ADME, organism-based; conditions: in vivo
# [55] = Cmax in Swiss outbred mouse at 0.4 mg/kg, po; format: ADME, organism-based; design: dose 0.4 mg/kg, route oral; conditions: in vivo
# [56] = AUC (0 to infinity) in Sprague-Dawley rat at 2.1 mg/kg, po; format: ADME, organism-based; design: time infinity, dose 2.1 mg/kg, route oral; conditions: plasma
# in vivo [57] = conditions: NOD-SCID IL-2Rgamma-null, mouse, po, 7 mg/kg; remark: listed apart in the source
# [58] = AUC (0 to infinity) in Swiss outbred mouse plasma at 0.4 mg/kg, po; format: ADME, organism-based; design: time infinity, dose 0.4 mg/kg, route oral
smiles,measurement,setting,value
Cc1cc(Nc2ccc(S(F)(F)(F)(F)F)cc2)n2nc(C(C)(F)F)nc2n1 [DSM-265],AUC(0-inf),[1],22.6 µM·h
same,Tmax,in vivo [2],3.25 h
same,half-life,[3],930 min
same,Cmax,[4],3.9 µM
same,PPB,Plasma,97.4%
same,Cmax,[5],9.53 µM
same,bioavailability,[6],61%
same,EC50,Plasmodium falciparum [7],46 nM
same,EC50,Plasmodium falciparum [8],31 nM
same,EC50,Plasmodium falciparum [9],15 nM
same,Tmax,in vivo [10],6.7 h
same,Cmax,[11],3.1 µM
same,Intrinsic clearance,Liver microsomes,< 5 µL/min/mg
same,Tmax,in vivo [12],1.5 h
same,EC50,Plasmodium falciparum [13],86 nM
same,half-life,[14],192 min
same,EC50,Plasmodium falciparum [15],22 nM
same,EC50,L1210,> 50 µM
same,solubility,[16],30 µM
same,clearance,[17],6 mL/min/kg
same,Tmax,in vivo [18],7 h
same,Tmax,in vivo [19],30 min
same,AUC(0-inf),[20],122 µM·h
same,bioavailability,[21],57%
same,half-life,[22],756 min
same,AUC(0-inf),[23],2.72 µM·h
same,EC50,Plasmodium falciparum [24],7.8 nM
same,Cmax,[25],6.4 µM
same,fraction unbound,[26],0.004
same,half-life,[27],696 min
same,half-life,[28],1670 min
same,Cmax,[29],750 nM
same,EC50,Plasmodium falciparum [30],57 nM
same,EC50,Plasmodium falciparum [31],> 20 µM
same,EC50,Plasmodium falciparum [32],27 nM
same,Tmax,in vivo [33],2 h
same,ED50,Plasmodium falciparum [34],2.8 mg/kg
same,ED90,Plasmodium falciparum [34],8.1 mg/kg
same,AUC(0-inf),[35],322 µM·h
same,half-life,[36],246 min
same,fraction unbound,[37],0.027
same,AUC(0-inf),[38],33.8 µM·h
same,half-life,[39],606 min
same,EC50,Plasmodium falciparum [40],57 nM
same,Time,Mus musculus [41],8 h
same,Tmax,in vivo [42],17 h
same,Cmax,[43],6.1 µM
same,Time,Mus musculus [44],0 h
same,Vd,[45],5.9 L/kg
same,Tmax,in vivo [46],1 h
same,Vd,[47],2.9 L/kg
same,Time,Mus musculus [48],0 h
same,half-life,[49],210 min
same,half-life,[50],150 min
same,Cmax,[51],5.3 µM
same,EC50,HepG2,> 50 µM
same,Cmax,[52],440 nM
same,AUC,Mus musculus [53],3469 µM·min
same,bioavailability,[54],66%
same,Cmax,[55],60 nM
same,AUC(0-inf),[56],15.5 µM·h
same,Tmax,in vivo [57],4 h
same,AUC(0-inf),[58],0.45 µM·h
